From patent US12662479B2 (Foghorn Therapeutics Inc., priority 2020, dated 2026) come the findings set out here.

The target in assay [1] is T1, HiBit-BRG1 fusion protein (Homo sapiens, UniProt P51532).
T1 construct: expressed in transfected cells
In words: HiBiT-BRG1 cell-based degradation assay (Nano-Glo HiBiT Lytic Detection, 24 h). The settings on record: HeLa cells expressing HiBit-BRG1 and LgBit; for DC50: read-out: BRG1 HiBit Degradation IC50; for Dmax: HeLa, top dose 30 μM, read-out: BRG1 HiBit Degradation Maximum measured. The essentials:
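Stable HeLa line expressing HiBiT-BRG1 and LgBiT, seeded at 5000 cells/well; luminescence read after lytic Nano-Glo HiBiT reagent and 10 min shaking at RT. % degradation normalised between DMSO (high control) and 2 μM reference BRM/BRG1 degrader (low control).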
For orientation: The HiBiT peptide binds its large partner to form an active luciferase.

The next assay has as its target T2, HiBit-BRM fusion protein (Homo sapiens, UniProt P51531).
T2 construct: expressed in transfected cells
Briefly: HiBiT-BRM cell-based degradation assay (Nano-Glo HiBiT Lytic Detection, 24 h). The following applies: HeLa cells expressing HiBiT-BRM; for DC50: read-out: BRM HiBit Degradation IC50; for BRM HiBit Degradation Maximum measured: top dose 30 μM. The essentials: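 Luminescence from reconstituted NanoBiT luciferase in lysed HeLa HiBiT-BRM cells served as the measure of remaining BRM after 24 h treatment. Compounds were tested from 30 μM final downward in 3-fold steps. DMSO and 2 μM of a standard BRM/BRG1 degrader defined the scale limits.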

SMILES strings stand for the structures.

T2 sequence (P51531 whole entry, the tested form may be a part): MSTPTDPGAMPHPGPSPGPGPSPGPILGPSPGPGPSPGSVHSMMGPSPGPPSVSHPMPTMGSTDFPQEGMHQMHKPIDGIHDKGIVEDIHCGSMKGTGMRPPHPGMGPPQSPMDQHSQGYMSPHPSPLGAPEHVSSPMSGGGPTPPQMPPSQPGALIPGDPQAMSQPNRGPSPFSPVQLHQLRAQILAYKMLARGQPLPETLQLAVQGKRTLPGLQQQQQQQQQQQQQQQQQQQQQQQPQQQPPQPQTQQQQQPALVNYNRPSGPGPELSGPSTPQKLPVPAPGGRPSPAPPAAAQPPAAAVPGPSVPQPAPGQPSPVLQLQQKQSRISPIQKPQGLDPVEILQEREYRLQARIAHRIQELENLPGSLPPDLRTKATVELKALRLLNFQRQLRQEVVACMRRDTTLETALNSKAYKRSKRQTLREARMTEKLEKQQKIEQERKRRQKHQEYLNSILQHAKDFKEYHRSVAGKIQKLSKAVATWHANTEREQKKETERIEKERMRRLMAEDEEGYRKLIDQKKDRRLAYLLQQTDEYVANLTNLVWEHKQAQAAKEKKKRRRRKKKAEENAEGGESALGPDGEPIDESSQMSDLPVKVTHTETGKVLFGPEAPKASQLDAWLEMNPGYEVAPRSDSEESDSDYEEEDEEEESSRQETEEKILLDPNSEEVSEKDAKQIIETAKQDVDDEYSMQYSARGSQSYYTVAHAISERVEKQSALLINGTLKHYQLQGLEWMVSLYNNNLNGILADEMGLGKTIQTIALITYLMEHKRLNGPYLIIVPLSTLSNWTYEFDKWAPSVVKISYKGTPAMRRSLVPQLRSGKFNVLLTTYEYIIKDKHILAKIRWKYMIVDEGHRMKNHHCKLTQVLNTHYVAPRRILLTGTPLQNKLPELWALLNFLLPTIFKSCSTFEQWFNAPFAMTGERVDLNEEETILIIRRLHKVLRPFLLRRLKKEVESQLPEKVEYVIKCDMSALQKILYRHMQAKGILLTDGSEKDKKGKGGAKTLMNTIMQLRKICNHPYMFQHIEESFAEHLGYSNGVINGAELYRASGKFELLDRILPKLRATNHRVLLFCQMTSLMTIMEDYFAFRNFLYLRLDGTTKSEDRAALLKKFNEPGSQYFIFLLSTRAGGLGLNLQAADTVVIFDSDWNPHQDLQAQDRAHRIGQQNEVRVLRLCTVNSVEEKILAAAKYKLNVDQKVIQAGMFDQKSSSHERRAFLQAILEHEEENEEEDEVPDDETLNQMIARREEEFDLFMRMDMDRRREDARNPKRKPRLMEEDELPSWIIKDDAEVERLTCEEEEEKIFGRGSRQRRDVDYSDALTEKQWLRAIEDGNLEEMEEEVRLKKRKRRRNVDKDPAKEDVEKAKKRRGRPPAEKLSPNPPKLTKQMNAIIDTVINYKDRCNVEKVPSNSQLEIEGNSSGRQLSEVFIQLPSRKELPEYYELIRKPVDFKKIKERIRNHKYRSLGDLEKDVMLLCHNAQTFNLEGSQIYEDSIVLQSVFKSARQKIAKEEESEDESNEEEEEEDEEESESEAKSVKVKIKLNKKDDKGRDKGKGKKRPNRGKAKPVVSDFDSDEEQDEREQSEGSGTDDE
T1 sequence (P51532 whole entry, the tested form may be a part): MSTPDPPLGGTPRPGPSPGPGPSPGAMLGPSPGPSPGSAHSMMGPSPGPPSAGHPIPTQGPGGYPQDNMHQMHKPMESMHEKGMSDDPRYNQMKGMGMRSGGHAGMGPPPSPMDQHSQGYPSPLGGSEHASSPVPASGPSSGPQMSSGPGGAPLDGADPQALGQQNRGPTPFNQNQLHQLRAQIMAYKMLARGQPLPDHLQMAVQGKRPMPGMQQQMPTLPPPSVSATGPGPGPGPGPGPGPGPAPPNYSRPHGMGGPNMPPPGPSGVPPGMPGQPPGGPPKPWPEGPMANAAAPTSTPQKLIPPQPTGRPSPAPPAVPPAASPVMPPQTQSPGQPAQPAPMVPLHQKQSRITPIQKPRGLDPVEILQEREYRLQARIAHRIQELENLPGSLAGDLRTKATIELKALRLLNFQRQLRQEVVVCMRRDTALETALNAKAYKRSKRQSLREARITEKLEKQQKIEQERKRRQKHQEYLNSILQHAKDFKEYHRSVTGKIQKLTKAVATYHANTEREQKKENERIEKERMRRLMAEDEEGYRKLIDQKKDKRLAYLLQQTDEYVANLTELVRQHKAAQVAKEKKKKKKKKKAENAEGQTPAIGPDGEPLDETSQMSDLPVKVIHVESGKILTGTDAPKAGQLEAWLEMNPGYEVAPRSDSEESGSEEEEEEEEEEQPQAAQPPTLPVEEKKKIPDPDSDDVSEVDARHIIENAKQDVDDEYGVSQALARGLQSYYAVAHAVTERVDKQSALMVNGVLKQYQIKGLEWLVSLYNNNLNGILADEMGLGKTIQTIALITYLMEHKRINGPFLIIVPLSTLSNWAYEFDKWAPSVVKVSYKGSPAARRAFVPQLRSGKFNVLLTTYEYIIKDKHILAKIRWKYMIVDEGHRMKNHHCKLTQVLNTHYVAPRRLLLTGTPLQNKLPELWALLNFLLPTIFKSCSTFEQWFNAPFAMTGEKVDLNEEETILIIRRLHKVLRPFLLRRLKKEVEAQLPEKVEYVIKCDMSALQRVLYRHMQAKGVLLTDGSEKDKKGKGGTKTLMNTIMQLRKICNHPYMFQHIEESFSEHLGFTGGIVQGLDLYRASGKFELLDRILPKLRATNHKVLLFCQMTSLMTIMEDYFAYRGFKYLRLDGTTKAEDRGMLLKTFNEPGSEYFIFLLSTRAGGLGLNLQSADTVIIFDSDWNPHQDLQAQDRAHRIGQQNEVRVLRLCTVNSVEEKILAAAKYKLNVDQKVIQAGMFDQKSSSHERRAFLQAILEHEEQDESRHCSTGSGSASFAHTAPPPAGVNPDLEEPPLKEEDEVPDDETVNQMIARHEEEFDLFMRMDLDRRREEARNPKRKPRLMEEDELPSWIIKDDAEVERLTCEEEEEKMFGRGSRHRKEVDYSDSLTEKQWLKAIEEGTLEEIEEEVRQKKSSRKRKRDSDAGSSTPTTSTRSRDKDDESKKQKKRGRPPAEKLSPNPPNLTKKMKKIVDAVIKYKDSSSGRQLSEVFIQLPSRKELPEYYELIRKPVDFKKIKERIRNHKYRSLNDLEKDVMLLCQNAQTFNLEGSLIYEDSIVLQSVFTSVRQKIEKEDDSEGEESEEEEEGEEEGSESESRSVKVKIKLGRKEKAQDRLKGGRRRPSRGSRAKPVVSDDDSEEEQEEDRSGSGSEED

Take `CS(=O)(=O)n1ccc(C(=O)N[C@@H](CCOCCCC(=O)NCCOc2cccc(OCCNc3ccc4c(c3)C(=O)N(C3CCC(=O)NC3=O)C4=O)c2)C(=O)Nc2nc(-c3ccccc3)cs2)c1` (stereo partly drawn) [Compound 285, (2S)-4-[3-([2-[3-(2-[[2-(2,6-dioxopiperidin-3-yl)-1,3-dioxoisoindol-5-yl]amino]ethoxy)phenoxy]ethyl]carbamoyl)propoxy]-2-[(1-methanesulfonylpyrrol-3-yl)formamido]-N-(4-phenyl-1,3-thiazol-2-yl)butanamide]: in assay [1], the DC50 was over 10 µM and the Dmax is under 50%. On HiBit-BRM fusion protein, the DC50 is over 10 µM and the “BRM HiBit Degradation Maximum measured” value is on record as “C (‘C’ = Maximum degradation <50%)”.

In the case of `CS(=O)(=O)n1ccc(C(=O)N[C@@H](CCOCCCC(=O)NCCNc2ccc3c(c2)C(=O)N(C2CCC(=O)NC2=O)C3=O)C(=O)Nc2nc(-c3ccccc3)cs2)c1` (stereo partly drawn) [Compound 286, (2S)-4-[3-[(2-[[2-(2,6-dioxopiperidin-3-yl)-1,3-dioxoisoindol-5-yl]amino]ethyl)carbamoyl]propoxy]-2-[(1-methanesulfonylpyrrol-3-yl)formamido]-N-(4-phenyl-1,3-thiazol-2-yl)butanamide], in assay [1], the DC50 is over 10 µM and the Dmax is under 50%. On HiBit-BRM fusion protein, the DC50 is over 10 µM and the “BRM HiBit Degradation Maximum measured” value is listed as “C (‘C’ = Maximum degradation <50%)”.

On to `CS(=O)(=O)n1ccc(C(=O)N[C@@H](CCOCCCC(=O)NCCCCCNc2ccc3c(c2)C(=O)N(C2CCC(=O)NC2=O)C3=O)C(=O)Nc2nc(-c3ccccc3)cs2)c1` (stereo partly drawn) [Compound 287, (2S)-4-[3-[(5-[[2-(2,6-dioxopiperidin-3-yl)-1,3-dioxoisoindol-5-yl]amino]pentyl)carbamoyl]propoxy]-2-[(1-methanesulfonylpyrrol-3-yl)formamido]-N-(4-phenyl-1,3-thiazol-2-yl)butanamide], for which, in assay [1], the DC50 is over 10 µM and the Dmax is under 50%. Besides, at HiBit-BRM fusion protein, the DC50 was over 10 µM and the “BRM HiBit Degradation Maximum measured” value was “C (‘C’ = Maximum degradation <50%)”.

In the case of `CS(=O)(=O)n1ccc(C(=O)N[C@@H](CCCCNC(=O)CCOCCOCCOc2cccc3c2C(=O)N(C2CCC(=O)NC2=O)C3=O)C(=O)Nc2nc(-c3ccccc3)cs2)c1` (stereo partly drawn) [Compound 288, (2S)-6-[3-[2-(2-[[2-(2,6-dioxopiperidin-3-yl)-1,3-dioxoisoindol-4-yl]oxy]ethoxy)ethoxy]propanamido]-2-[(1-methanesulfonylpyrrol-3-yl)formamido]-N-(4-phenyl-1,3-thiazol-2-yl)hexanamide], in assay [1], the DC50 was over 10 µM and the Dmax was under 50%. Moreover, at HiBit-BRM fusion protein, the DC50 is over 10 µM and the “BRM HiBit Degradation Maximum measured” value was “C (‘C’ = Maximum degradation <50%)”.

With `CS(=O)(=O)n1ccc(C(=O)N[C@@H](CCCCNC(=O)CCCCCCCOc2cccc3c2C(=O)N(C2CCC(=O)NC2=O)C3=O)C(=O)Nc2nc(-c3ccccc3)cs2)c1` (stereo partly drawn) [Compound 289, 8-[[2-(2,6-dioxopiperidin-3-yl)-1,3-dioxoisoindol-4-yl]oxy]-N-[(5S)-5-[(1-methanesulfonylpyrrol-3-yl)formamido]-5-[(4-phenyl-1,3-thiazol-2-yl)carbamoyl]pentyl]octanamide], in assay [1], the DC50 is over 10 µM and the Dmax is under 50%. At HiBit-BRM fusion protein, the DC50 was over 10 µM and the “BRM HiBit Degradation Maximum measured” value is on record as “C (‘C’ = Maximum degradation <50%)”.

Turning to `CS(=O)(=O)n1ccc(C(=O)N[C@@H](CCCCNC(=O)CCCCCCOc2cccc3c2C(=O)N(C2CCC(=O)NC2=O)C3=O)C(=O)Nc2nc(-c3ccccc3)cs2)c1` (stereo partly drawn) [Compound 290, 7-[[2-(2,6-dioxopiperidin-3-yl)-1,3-dioxoisoindol-4-yl]oxy]-N-[(5S)-5-[(1-methanesulfonylpyrrol-3-yl)formamido]-5-[(4-phenyl-1,3-thiazol-2-yl)carbamoyl]pentyl]heptanamide], in assay [1], the DC50 is over 10 µM and the Dmax is under 50%. Besides, on HiBit-BRM fusion protein, the DC50 was over 10 µM and the “BRM HiBit Degradation Maximum measured” value is on record as “C (‘C’ = Maximum degradation <50%)”.

For `CS(=O)(=O)n1ccc(C(=O)N[C@@H](CCCCNC(=O)CCOCCOCCOc2ccc3c(c2)C(=O)N(C2CCC(=O)NC2=O)C3=O)C(=O)Nc2nc(-c3ccccc3)cs2)c1` (stereo partly drawn) [Compound 291, (2S)-6-[3-[2-(2-[[2-(2,6-dioxopiperidin-3-yl)-1,3-dioxoisoindol-5-yl]oxy]ethoxy)ethoxy]propanamido]-2-[(1-methanesulfonylpyrrol-3-yl)formamido]-N-(4-phenyl-1,3-thiazol-2-yl)hexanamide], in assay [1], the DC50 is over 10 µM and the Dmax was under 50%. For the same compound, at HiBit-BRM fusion protein, the DC50 was over 10 µM and the “BRM HiBit Degradation Maximum measured” value is on record as “C (‘C’ = Maximum degradation <50%)”.

`CS(=O)(=O)n1ccc(C(=O)N[C@@H](CCCCNC(=O)CCOCCOCCNc2ccc3c(c2)C(=O)N(C2CCC(=O)NC2=O)C3=O)C(=O)Nc2nc(-c3ccccc3)cs2)c1` (stereo partly drawn) [Compound 292, (2S)-6-[3-[2-(2-[[2-(2,6-dioxopiperidin-3-yl)-1,3-dioxoisoindol-5-yl]amino]ethoxy)ethoxy]propanamido]-2-[(1-methanesulfonylpyrrol-3-yl)formamido]-N-(4-phenyl-1,3-thiazol-2-yl)hexanamide]: in assay [1], the DC50 was over 10 µM and the Dmax is under 50%. At HiBit-BRM fusion protein, the DC50 is over 10 µM and the “BRM HiBit Degradation Maximum measured” value is given as “C (‘C’ = Maximum degradation <50%)”.

As to `CS(=O)(=O)n1ccc(C(=O)N[C@@H](CCCCNC(=O)CCN2CC3(C2)CN(c2ccc4c(c2)C(=O)N(C2CCC(=O)NC2=O)C4=O)C3)C(=O)Nc2nc(-c3ccccc3)cs2)c1` (stereo partly drawn) [Compound 294, (2S)-6-(3-[6-[2-(2,6-dioxopiperidin-3-yl)-1,3-dioxoisoindol-5-yl]-2,6-diazaspiro[3.3]heptan-2-yl]propanamido)-2-[(1-methanesulfonylpyrrol-3-yl)formamido]-N-(4-phenyl-1,3-thiazol-2-yl)hexanamide], in assay [1], the DC50 is over 10 µM and the Dmax is under 50%. Also, on HiBit-BRM fusion protein, the DC50 was over 10 µM and the “BRM HiBit Degradation Maximum measured” value is “C (‘C’ = Maximum degradation <50%)”.

For `CS(=O)(=O)n1ccc(C(=O)N[C@@H](CCCCNC(=O)CCCCOc2cccc3c2C(=O)N(C2CCC(=O)NC2=O)C3=O)C(=O)Nc2nc(-c3ccccc3)cs2)c1` (stereo partly drawn) [Compound 295, (2S)-6-(5-[[2-(2,6-dioxopiperidin-3-yl)-1,3-dioxoisoindol-4-yl]oxy]pentanemido)-2-[(1-methanesulfonylpyrrol-3-yl)formamido]-N-(4-phenyl-1,3-thiazol-2-yl)hexanamide], in assay [1], the DC50 is over 10 µM and the Dmax was under 50%. Moreover, at HiBit-BRM fusion protein, the DC50 is over 10 µM and the “BRM HiBit Degradation Maximum measured” value is given as “C (‘C’ = Maximum degradation <50%)”.

As to `CS(=O)(=O)n1ccc(C(=O)N[C@@H](CCCCNC(=O)CCCCCCCCCCNc2cccc3c2C(=O)N(C2CCC(=O)NC2=O)C3=O)C(=O)Nc2nc(-c3ccccc3)cs2)c1` (stereo partly drawn) [Compound 296, 11-[[2-(2,6-dioxopiperidin-3-yl)-1,3-dioxoisoindol-4-yl]amino]-N-[(5S)-5-[(1-methanesulfonylpyrrol-3-yl)formamido]-5-[(4-phenyl-1,3-thiazol-2-yl)carbamoyl]pentyl]undecanamide], in assay [1], the DC50 is over 10 µM and the Dmax is under 50%. Moreover, on HiBit-BRM fusion protein, the DC50 is over 10 µM and the “BRM HiBit Degradation Maximum measured” value is “C (‘C’ = Maximum degradation <50%)”.

Regarding `CS(=O)(=O)n1ccc(C(=O)N[C@@H](CCCCNC(=O)CCN2CCN(c3ccc4c(c3)C(=O)N(C3CCC(=O)NC3=O)C4=O)CC2)C(=O)Nc2nc(-c3ccccc3)cs2)c1` (stereo partly drawn) [Compound 297, N-((2S)-6-(3-(4-(2-(2,6-dioxopiperidin-3-yl)-1,3-dioxoisoindolin-5-yl)piperazin-1-yl)propanamido)-1-oxo-1-((4-phenylthiazol-2-yl)amino)hexan-2-yl)-1-(methylsulfonyl)-1H-pyrrole-3-carboxamide], in assay [1], the DC50 was over 10 µM and the Dmax is under 50%. For the same compound, on HiBit-BRM fusion protein, the DC50 is over 10 µM and the “BRM HiBit Degradation Maximum measured” value is listed as “C (‘C’ = Maximum degradation <50%)”.
